Patent US20250197394A1, “ANTIBACTERIALS BASED ON MONOCYCLIC FRAGMENTS COUPLED TO AMINOPIPERIDINE NAPHTHYRIDINE SCAFFOLD” (UNIVERZA V LJUBLJANI, priority 2019, published 2025)
Values after ≈ are worked out from the molar mass of the structure shown.

How the values were obtained:
[1] = test system: methicillin-resistant Staphylococcus schleiferi subspecies coagulans; experiment: MIC broth microdilution, MRSS; assay type: cell-based; conditions: 20 hours of incubation
Method: (§1) Minimal inhibitory concentrations were determined by the broth microdilution method in 96-wells plate format following the Clinical and Laboratory Standards Institute (CLSI) guidelines given in “Methods for Dilution Antimicrobial Susceptibility Tests for Bacteria That Grow Aerobically, Approved Standard, 10th Edition, CLSI document M07-A10, Wayne, PA: Clinical and Laboratory Standards Institute, USA, 2015” and European Committee on Antimicrobial Susceptibility Testing (EUCAST) recommendations given in “The European Committee on Antimicrobial Susceptibility Testing, Breakpoint tables for interpretation of MICs and zone diameters, Version 5.0, 2015”. All exemplified compounds were tested on several Gram-positive (S. aureus, methicillin-resistant Staphylococcus aureus (MRSA), methicillin-resistant
(§2) Staphylococcus schleiferi subspecies coagulans, methicillin-resistant Staphylococcus pseudintermedius
(§3) (S-48, S-84, S-35, S-52, S-40 and S-51), Streptococcus agalactiae and Enterococcus faecalis) and Gram-negative bacteria (E. coli, Salmonella Alachua and Pseudomonas aeruginosa).
(§4) The MICs were visually determined as the lowest compound concentration inhibiting bacterial growth after 20 hours of incubation time. […] MIC values are represented in Table 2.

[2] = test system: methicillin-resistant Staphylococcus pseudintermedius S-84; experiment: MIC broth microdilution, MRSP S-84; assay type: cell-based; conditions: 20 hours of incubation
Method: as §1, §2, §3, §4

[3] = test system: methicillin-resistant Staphylococcus pseudintermedius S-48; experiment: MIC broth microdilution, MRSP S-48; assay type: cell-based; conditions: 20 hours of incubation
Method: as §1, §2, §3, §4

[4] = test system: methicillin-resistant Staphylococcus pseudintermedius S-35; experiment: MIC broth microdilution, MRSP S-35; assay type: cell-based; conditions: 20 hours of incubation
Method: as §1, §2, §3, §4

[5] = test system: methicillin-resistant Staphylococcus pseudintermedius S-52; experiment: MIC broth microdilution, MRSP S-52; assay type: cell-based; conditions: 20 hours of incubation
Method: as §1, §2, §3, §4

[6] = test system: methicillin-resistant Staphylococcus pseudintermedius S-40; experiment: MIC broth microdilution, MRSP S-40; assay type: cell-based; conditions: 20 hours of incubation
Method: as §1, §2, §3, §4

[7] = test system: methicillin-resistant Staphylococcus pseudintermedius S-51; experiment: MIC broth microdilution, MRSP S-51; assay type: cell-based; conditions: 20 hours of incubation
Method: as §1, §2, §3, §4

E. faecalis DRK 057 = experiment: MIC broth microdilution, E. faecalis; assay type: cell-based; conditions: Enterococcus faecalis, DRK057, 20 hours of incubation
Method: as §1, §2, §3, §4

P. aeruginosa RDK 184 = experiment: MIC broth microdilution, P. aeruginosa; assay type: cell-based; conditions: Pseudomonas aeruginosa, RDK184, 20 hours of incubation
Method: as §1, §2, §3, §4

C. jejuni RDK-135 = experiment: MIC broth microdilution, C. jejuni; assay type: cell-based; conditions: Campylobacter jejuni, RDK135, 20 hours of incubation
Method: as §1, §4

HUVEC (ATCC) cell line = experiment: Cytotoxicity, metabolic cell activity (CellTiter 96 AQueous One), HUVEC; assay type: cell-based; conditions: two independent experiments; for mean percentage of metabolic activity of treated cells, HUVEC 1 μM: compound 1 μM; for mean percentage of metabolic activity of treated cells, HUVEC 50 μM: compound 50 μM
Method: (§5) Cytotoxicity was assessed in assay measuring metabolic cell activity performed on HepG2 (ATCC) and HUVEC (ATCC) cell lines according to the protocol of CellTiter 96® AQueous One Solution Cell Proliferation Assay 2018, Promega, USA, 2001. The method involved absorbance measurements after the treatment of cells with compounds at concentrations 1 μM and 50 μM.
(§6) The results are given as the mean percentage of metabolic activity of treated cells from two independent experiments and are represented in Table 3.

HepG2 (ATCC) cell line = experiment: Cytotoxicity, metabolic cell activity (CellTiter 96 AQueous One), HepG2; assay type: cell-based; conditions: two independent experiments; for mean percentage of metabolic activity of treated cells, HepG2 1 μM: HepG2, compound 1 μM; for mean percentage of metabolic activity of treated cells, HepG2 50 μM: HepG2, compound 50 μM
Method: as §5, §6

[8] = target: Staphylococcus aureus DNA gyrase (Staphylococcus aureus, UniProt P0A0K8+P20831); experiment: biochemical
Staphylococcus aureus DNA gyrase, sequence (P20831 whole entry): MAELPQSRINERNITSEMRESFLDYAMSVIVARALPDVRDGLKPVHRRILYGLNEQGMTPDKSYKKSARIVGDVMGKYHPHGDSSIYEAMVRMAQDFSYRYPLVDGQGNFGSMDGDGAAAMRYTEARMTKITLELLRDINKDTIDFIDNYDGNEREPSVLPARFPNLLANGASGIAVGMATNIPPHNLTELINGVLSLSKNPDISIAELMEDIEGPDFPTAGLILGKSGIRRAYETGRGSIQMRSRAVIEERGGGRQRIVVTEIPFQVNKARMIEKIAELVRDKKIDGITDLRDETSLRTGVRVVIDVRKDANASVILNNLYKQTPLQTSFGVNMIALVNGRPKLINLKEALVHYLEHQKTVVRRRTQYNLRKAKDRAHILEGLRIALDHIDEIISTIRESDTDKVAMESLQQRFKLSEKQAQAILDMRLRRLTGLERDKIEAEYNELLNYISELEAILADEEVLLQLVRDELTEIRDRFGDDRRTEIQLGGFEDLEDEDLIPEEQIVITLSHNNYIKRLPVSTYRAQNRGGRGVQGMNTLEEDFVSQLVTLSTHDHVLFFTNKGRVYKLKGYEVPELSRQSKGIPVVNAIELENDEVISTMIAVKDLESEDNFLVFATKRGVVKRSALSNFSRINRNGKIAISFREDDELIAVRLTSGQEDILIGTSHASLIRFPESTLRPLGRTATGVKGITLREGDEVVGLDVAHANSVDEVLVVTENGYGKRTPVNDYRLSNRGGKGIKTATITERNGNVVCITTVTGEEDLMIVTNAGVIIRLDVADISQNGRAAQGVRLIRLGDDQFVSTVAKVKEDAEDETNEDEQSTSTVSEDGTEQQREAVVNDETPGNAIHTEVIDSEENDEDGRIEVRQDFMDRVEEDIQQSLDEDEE
Staphylococcus aureus DNA gyrase, sequence (P0A0K8 whole entry): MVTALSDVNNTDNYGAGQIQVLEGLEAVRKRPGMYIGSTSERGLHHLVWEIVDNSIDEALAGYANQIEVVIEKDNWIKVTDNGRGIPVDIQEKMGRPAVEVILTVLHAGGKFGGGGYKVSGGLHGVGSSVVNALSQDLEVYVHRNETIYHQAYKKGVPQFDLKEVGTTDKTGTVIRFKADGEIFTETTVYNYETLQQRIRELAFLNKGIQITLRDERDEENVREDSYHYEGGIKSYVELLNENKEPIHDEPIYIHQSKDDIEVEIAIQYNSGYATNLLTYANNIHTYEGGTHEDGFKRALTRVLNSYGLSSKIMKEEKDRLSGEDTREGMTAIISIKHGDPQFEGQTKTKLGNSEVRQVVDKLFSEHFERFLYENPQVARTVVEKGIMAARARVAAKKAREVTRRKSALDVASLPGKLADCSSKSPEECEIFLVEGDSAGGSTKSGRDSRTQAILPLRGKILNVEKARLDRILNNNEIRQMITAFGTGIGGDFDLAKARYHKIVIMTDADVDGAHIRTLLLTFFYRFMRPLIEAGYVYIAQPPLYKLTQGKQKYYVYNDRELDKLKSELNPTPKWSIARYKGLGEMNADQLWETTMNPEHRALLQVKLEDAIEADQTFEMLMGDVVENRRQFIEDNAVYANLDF

[9] = target: T1, Escherichia coli DNA gyrase (Escherichia coli, UniProt P0AES4+P0AES6); experiment: Gyrase Supercoiling High Throughput Plate assay (E. coli); assay type: biochemical; conditions: mean of two to four independent measurements
T1 construct: purchased Inspiralis (Norwich, UK)
T1 sequence (P0AES4 whole entry, one chain of several): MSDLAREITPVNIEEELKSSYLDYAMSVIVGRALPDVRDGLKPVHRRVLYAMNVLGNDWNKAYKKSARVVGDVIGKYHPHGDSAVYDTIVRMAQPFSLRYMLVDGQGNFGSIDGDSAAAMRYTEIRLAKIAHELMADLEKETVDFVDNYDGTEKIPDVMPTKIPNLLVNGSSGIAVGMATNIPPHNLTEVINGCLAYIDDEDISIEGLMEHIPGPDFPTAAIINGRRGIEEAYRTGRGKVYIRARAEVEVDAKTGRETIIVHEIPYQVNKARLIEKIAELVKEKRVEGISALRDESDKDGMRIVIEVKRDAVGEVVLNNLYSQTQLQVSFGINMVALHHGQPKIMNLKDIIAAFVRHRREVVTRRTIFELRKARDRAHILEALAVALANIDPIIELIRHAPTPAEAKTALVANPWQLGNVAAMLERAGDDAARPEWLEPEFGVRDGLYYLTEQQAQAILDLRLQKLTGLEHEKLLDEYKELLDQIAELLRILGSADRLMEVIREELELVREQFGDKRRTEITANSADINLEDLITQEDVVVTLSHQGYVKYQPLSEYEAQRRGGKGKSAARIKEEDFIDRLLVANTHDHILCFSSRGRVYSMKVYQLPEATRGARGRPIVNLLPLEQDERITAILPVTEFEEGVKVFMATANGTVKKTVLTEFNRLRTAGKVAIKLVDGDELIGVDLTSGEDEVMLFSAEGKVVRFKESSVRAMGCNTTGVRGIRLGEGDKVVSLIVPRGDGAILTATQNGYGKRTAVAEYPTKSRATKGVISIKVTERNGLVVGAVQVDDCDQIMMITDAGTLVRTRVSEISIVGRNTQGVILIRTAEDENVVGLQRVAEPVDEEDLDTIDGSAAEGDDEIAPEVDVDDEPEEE

[10] = test system: methicillin-resistant Staphylococcus aureus (MRSA); experiment: MIC broth microdilution, MRSA; assay type: cell-based; conditions: 20 hours of incubation
Method: as §1, §2, §3, §4

| Structure (SMILES) | MIC [1] | MIC [2] | MIC [3] | MIC [4] | MIC [5] | MIC [6] | MIC [7] | MIC (E. faecalis DRK 057) | MIC (P. aeruginosa RDK 184) | MIC (C. jejuni RDK-135) | mean percentage of metabolic activity of treated cells, HUVEC 1 μM (HUVEC (ATCC) cell line) | mean percentage of metabolic activity of treated cells, HUVEC 50 μM (HUVEC (ATCC) cell line) | mean percentage of metabolic activity of treated cells, HepG2 1 μM (HepG2 (ATCC) cell line) | mean percentage of metabolic activity of treated cells, HepG2 50 μM (HepG2 (ATCC) cell line) | IC50 [8] | IC50 [9] | MIC [10] |
| --- | --- | --- | --- | --- | --- | --- | --- | --- | --- | --- | --- | --- | --- | --- | --- | --- | --- |
| COc1ccc2nccc(CCN3CCC(NCc4ccc(Br)cc4)CC3)c2n1 [Compound C7, N-(4-bromobenzyl)-1-(2-(6-methoxy-1,5-naphthyridin-4-yl)ethyl)piperidin-4-amine] | ≤ 0.0078 µg/mL | 0.062 µg/mL (≈ 0.136 µM) | 0.062 µg/mL (≈ 0.136 µM) | 0.062 µg/mL (≈ 0.136 µM) | 0.125 µg/mL (≈ 0.274 µM) | 0.031 µg/mL (≈ 0.0681 µM) | 0.062 µg/mL (≈ 0.136 µM) | 1 µg/mL (≈ 2.2 µM) | 128 µg/mL (≈ 281 µM) | 0.5 µg/mL (≈ 1.1 µM) | 92.0 ± 4.5% | −0.5 ± 0.2% | 84.3 ± 8.9% | −0.1 ± 0.3% | 0.007 µM |  |  |
| C=CCn1cc(CNC2CCN(CCc3ccnc4ccc(OC)nc34)CC2)cn1 [Compound C11, N-((1-allyl-^1H-pyrazol-4-yl)methyl)-1-(2-(6-methoxy-1,5-naphthyridin-4-yl)ethyl)piperidin-4-amine] | 0.125 µg/mL (≈ 0.307 µM) | < 1 µg/mL | 2 µg/mL (≈ 4.92 µM) | 2 µg/mL (≈ 4.92 µM) | 4 µg/mL (≈ 9.84 µM) | 1 µg/mL (≈ 2.46 µM) | 2 µg/mL (≈ 4.92 µM) | 8 µg/mL (≈ 19.7 µM) | > 128 µg/mL | 8 µg/mL (≈ 19.7 µM) | 88.6 ± 21.2% | 84.2 ± 19.5% | 108.5 ± 6.3% | 77.0 ± 2.4% | 1.1 µM | 16.7 µM | 2 µg/mL (≈ 4.92 µM) |
| COc1ccc2nccc(CCN3CCC(NCc4ccc(F)cc4)CC3)c2n1 [Compound C5, N-(4-fluorobenzyl)-1-(2-(6-methoxy-1,5-naphthyridin-4-yl)ethyl)piperidin-4-amine] | 0.125 µg/mL (≈ 0.317 µM) | 2 µg/mL (≈ 5.07 µM) | 2 µg/mL (≈ 5.07 µM) | 2 µg/mL (≈ 5.07 µM) | 8 µg/mL (≈ 20.3 µM) | 2 µg/mL (≈ 5.07 µM) | 2 µg/mL (≈ 5.07 µM) | 8 µg/mL (≈ 20.3 µM) | > 128 µg/mL | 1 µg/mL (≈ 2.53 µM) | 105.2 ± 15.1% | 75.6 ± 12.0% | 98.0 ± 3.9% | −1.3 ± 2.2% | 0.55 µM | 17 µM |  |
| COc1ccc2nccc(CCN3CCC(NCc4ccc(CO)cc4)CC3)c2n1 [Compound C2, (4-((1-(2-(6-methoxy-1,5-naphthyridin-4-yl)ethyl)piperidin-4-ylamino)methyl)phenyl)methanol] | 0.25 µg/mL (≈ 0.615 µM) | 4 µg/mL (≈ 9.84 µM) | 4 µg/mL (≈ 9.84 µM) | 4 µg/mL (≈ 9.84 µM) | 8 µg/mL (≈ 19.7 µM) | 4 µg/mL (≈ 9.84 µM) | 4 µg/mL (≈ 9.84 µM) | 8 µg/mL (≈ 19.7 µM) | > 128 µg/mL | 32 µg/mL (≈ 78.7 µM) | 97.7 ± 9.4% | 63.1 ± 2.1% | 100.2 ± 1.5% | 24.1 ± 0.9% | 4.39 µM | 56.6 µM |  |
| COc1ccc2nccc(CCN3CCC(NCc4ccccc4)CC3)c2n1 [Compound C1, N-benzyl-1-(2-(6-methoxy-1,5-naphthyridin-4-yl)ethyl)piperidin-4-amine] | 0.25 µg/mL (≈ 0.664 µM) | 4 µg/mL (≈ 10.6 µM) | 4 µg/mL (≈ 10.6 µM) | 4 µg/mL (≈ 10.6 µM) | 16 µg/mL (≈ 42.5 µM) | 4 µg/mL (≈ 10.6 µM) | 4 µg/mL (≈ 10.6 µM) | 16 µg/mL (≈ 42.5 µM) | > 128 µg/mL | 32 µg/mL (≈ 85 µM) | 92.9 ± 16.6% | 63.4 ± 11.3% | 107.1 ± 7.2% | 1.4 ± 0.3% | 1.02 µM | 40.6 µM |  |
| COc1ccc2nccc(CCN3CCC(NCc4ccc(C(N)=O)cc4)CC3)c2n1 [Compound C3, 4-((1-(2-(6-methoxy-1,5-naphthyridin-4-yl)ethyl)piperidin-4-ylamino)methyl) benzamide] | 0.25 µg/mL (≈ 0.596 µM) | 4 µg/mL (≈ 9.53 µM) | 4 µg/mL (≈ 9.53 µM) | 4 µg/mL (≈ 9.53 µM) | 8 µg/mL (≈ 19.1 µM) | 4 µg/mL (≈ 9.53 µM) | 4 µg/mL (≈ 9.53 µM) | 128 µg/mL (≈ 305 µM) | > 128 µg/mL | 128 µg/mL (≈ 305 µM) | 105.8 ± 3.5% | 66.1 ± 3.5% | 94.0 ± 0.8% | 48.3 ± 1.0% | 1.82 µM | > 100 µM |  |
| COc1ccc2nccc(CCN3CCC(NCc4ccc(OC(F)F)c(O)c4)CC3)c2n1 [Compound C10, 2-(difluoromethoxy)-5-((1-(2-(6-methoxy-1,5-naphthyridin-4-yl)ethyl)piperidin-4-ylamino)methyl)phenol] | 0.25 µg/mL (≈ 0.545 µM) | 0.25 µg/mL (≈ 0.545 µM) | 0.25 µg/mL (≈ 0.545 µM) | 0.5 µg/mL (≈ 1.09 µM) | 2 µg/mL (≈ 4.36 µM) | 0.25 µg/mL (≈ 0.545 µM) | 0.25 µg/mL (≈ 0.545 µM) | 4 µg/mL (≈ 8.72 µM) | > 128 µg/mL | 0.016 µg/mL (≈ 0.0349 µM) | 96.4 ± 9.1% | 2.5 ± 0.3% | 100.5 ± 4.8% | −0.4 ± 1.6% | 0.33 µM | 4.41 µM |  |
| COc1ccc2nccc(CCN3CCC(NCc4ccc(N(C)C)cc4)CC3)c2n1 [Compound C4, N-(4-(dimethylamino)benzyl)-1-(2-(6-methoxy-1,5-naphthyridin-4-yl)ethyl)piperidin-4-amine] | 0.015 µg/mL (≈ 0.0358 µM) | 0.125 µg/mL (≈ 0.298 µM) | 0.25 µg/mL (≈ 0.596 µM) | 0.25 µg/mL (≈ 0.596 µM) | 0.5 µg/mL (≈ 1.19 µM) | 0.125 µg/mL (≈ 0.298 µM) | 0.25 µg/mL (≈ 0.596 µM) | 1 µg/mL (≈ 2.38 µM) | > 128 µg/mL | 4 µg/mL (≈ 9.53 µM) | 105.9 ± 0.9% | 0.1 ± 0.6% | 102.5 ± 2.3% | 0.8 ± 1.0% | 0.067 µM | 11.9 µM | 0.025 µg/mL (≈ 0.0596 µM) |
| COc1ccc2nccc(CCN3CCC(NCc4ccc(I)cc4)CC3)c2n1 [Compound C8, N-(4-iodobenzyl)-1-(2-(6-methoxy-1,5-naphthyridin-4-yl)ethyl)piperidin-4-amine] | 0.002 µg/mL (≈ 0.00398 µM) | 0.015 µg/mL (≈ 0.0299 µM) | 0.015 µg/mL (≈ 0.0299 µM) | 0.15 µg/mL (≈ 0.299 µM) | 0.062 µg/mL (≈ 0.123 µM) | ≤ 0.0078 µg/mL | 0.0078 µg/mL (≈ 0.0155 µM) | 1 µg/mL (≈ 1.99 µM) | 32 µg/mL (≈ 63.7 µM) | 0.015 µg/mL (≈ 0.0299 µM) | 108.0 ± 6.6% | −0.3 ± 0.5% | 102.6 ± 2.3% | 0.5 ± 0.3% | 0.011 µM |  | 0.015 µg/mL (≈ 0.0299 µM) |
| COc1ccc2nccc(CCN3CCC(NCc4ccc(OC(F)F)c(OC)c4)CC3)c2n1 [Compound C9, N-(4-(difluoromethoxy)-3-methoxybenzyl)-1-(2-(6-methoxy-1,5-naphthyridin-4-yl)ethyl)piperidin-4-amine] | 0.125 µg/mL (≈ 0.265 µM) | 2 µg/mL (≈ 4.23 µM) | 2 µg/mL (≈ 4.23 µM) | 2 µg/mL (≈ 4.23 µM) | 4 µg/mL (≈ 8.46 µM) | 2 µg/mL (≈ 4.23 µM) | 2 µg/mL (≈ 4.23 µM) | 16 µg/mL (≈ 33.9 µM) | > 128 µg/mL | 2 µg/mL (≈ 4.23 µM) | 89.6 ± 3.8% | 0.2 ± 1.0% | 89.7 ± 3.8% | −0.3 ± 2.1% | 0.35 µM | 3.9 µM |  |
